Assay results published in article PMC3827198, “Characterisation of AmphiAmR11, an Amphioxus (Branchiostoma floridae) D2-Dopamine-Like G Protein-Coupled Receptor” (PLoS ONE, 2013).
Counter-ions that a name gives are not always drawn.

What was measured:
D2-dopamine receptors = system: D2-dopamine receptors; design: method as in PMID 10531409, PMID 9572301; conditions: cited from earlier work
[1] = system: dopamine-induced ERK1/2 activation; assay: Effect of pertussis toxin and signalling inhibitors on agonist-induced ERK1/2 activation in AmphiAmR11-expressing CHO-K1 cells; type: cell-based, Chinese hamster; conditions: 10 µM inhibitor, 10 nM dopamine, 5 minutes
Description: Phospho-extracellular signal-related kinase (Phospho-ERK) levels were determined essentially as described previously. Minor modifications have been described. ERK1/2 phosphorylation levels were quantified by densitometry. The developed films were scanned in and analysed using the software program, Aida. The data generated by Aida was then processed using Microsoft Excel. Values for the kinase expression and activity levels were defined as 100% in the control samples. Student’s T-test (two-tailed and unpaired) was used to test for significance.
Figure 5 Effect of pertussis toxin and signalling inhibitors on dopamine-induced ERK1/2 activation in AmphiAmR11-expressing CHO-K1 cells. For the pertussis toxin experiment, AmphiAmR11-expressing CHO-K1 cells were pre-incubated with pertussis toxin (200 ng/ml) for 16 hours prior to serum-starvation for 2 hours in the absence of the toxin. Cells were then stimulated for 5 mins with 10 nM dopamine (open bar) or F-12 Hams control (black bar). For all other inhibitors, AmphiAmR11-expressing CHO-K1 cells were serum starved for 2 hours including incubation with 10 µM inhibitor or F-12 Hams control for the final 20 (AG1296 and AG1478) or 30 (PP2, LY294002, Ro31-8220, U0126, U73122 and U73343) minutes. Cells were then stimulated for 5 minutes with 10 nM dopamine […] in the presence of the inhibitor. Basal measurement in the absence of dopamine and inhibitor (first black bar) and the dopamine-only response in the absence of inhibitor (first open bar) are shown. (A) Representative blots from three or four independent experiments. […] Data are expressed as the mean + SEM. n = 3 - 4. DA, dopamine; PTX, pertussis toxin; Ro, Ro 31-8220; LY, LY294002.
Figure S3. Time courses for the effect of dopamine and tyramine on ERK1/2 phosphorylation in AmphiAmR11-expressing CHO-K1 cells. (A and B) AmphiAmR11-expressing CHO-K1 cells were serum-starved for 2 hours, prior to stimulation with tyramine or dopamine at the specified concentration for the specified length of time. Equal quantities of cell lysates were separated by SDS-PAGE and analysed for pERK or tERK by Western blotting. (C and D): AmphiAmR11-expressing CHO-K1 cells were incubated with pertussis toxin (200 ng/mL) for 16 hours followed by stimulation as described for Figures A and B. (A to D) Representative blot for each condition from three to four independent experiments. (E) Summary of the quantified blots. Data are expressed as the mean ± SEM. n = 3-4. PTX, pertussis toxin; Min, minutes.

D3-dopamine receptors = system: D3-dopamine receptors; design: method as in PMID 10531409, PMID 9572301; conditions: cited from earlier work
DD2R = system: DD2R; design: method as in PMID 12391323; conditions: cited from earlier work; for Antagonist effect at invertebrate D2-like receptor DD2R at high concentration: 10 µM
AmphiAmR11 [2] = molecular target: T1, AmphiAmR11 (Branchiostoma floridae, UniProt A0PF35); assay: Block of tyramine-induced inhibition of forskolin-stimulated cAMP levels in AmphiAmR11-expressing CHO-K1 cells; type: cell-based; conditions: 30 nM tyramine; for Block of tyramine-induced inhibition of forskolin-stimulated cAMP levels: 10 µM forskolin
CeDOP2L = system: CeDOP2L; design: method as in PMID 12887685; conditions: cited from earlier work; for Antagonist effect at invertebrate D2-like receptor CeDOP2L at high concentration: 10 µM
CeDOP2S = system: CeDOP2S; design: method as in PMID 12887685; conditions: cited from earlier work; for Antagonist effect at invertebrate D2-like receptor CeDOP2S at high concentration: 10 µM
AmphiAmR11 [3] = molecular target: T1, AmphiAmR11; assay: Block of dopamine-induced ERK1/2 activation in AmphiAmR11-expressing CHO-K1 cells by antagonists; type: cell-based; conditions: 1 µM antagonist, 10 nM dopamine, 5 min
AmphiAmR11 [4] = molecular target: T1, AmphiAmR11; assay: ERK1/2 phosphorylation in AmphiAmR11-expressing CHO-K1 cells (Western blotting); type: cell-based; conditions: for Effect of antagonist on ERK1/2 phosphorylation in the absence of dopamine: 1 μM antagonist
AmphiAmR4 = system: AmphiAmR4; design: method as in PMID 23183848; conditions: cited from earlier work
AmphiAmR11 [5] = molecular target: T1, AmphiAmR11; assay: Inhibition of forskolin-stimulated cAMP levels in AmphiAmR11-expressing CHO-K1 cells (agonist mode); type: cell-based; conditions: for Decrease of forskolin-stimulated cAMP levels by antagonist in the absence of agonist: 1 μM antagonist; for Agonist type at AmphiAmR11 (full or partial): cAMP assay; for Inhibition of forskolin-stimulated cAMP levels (maximal): concentration-response curves, absence of other agonist
Description: CHO-K1 cells were maintained in Ham’s F-12 nutrient media (Invitrogen Life Sciences) supplemented with 10% charcoal-stripped foetal bovine serum (CS-FBS) (Hyclone, Cramlington, UK), 50 U/μg penicillin/streptomycin and 4 mM L-glutamine (Invitrogen Life Sciences) in 5% CO2 at 37°C. Stably transfected cell lines were generated by the transfection of CHO-K1 cells using Lipofectamine (Invitrogen Life Sciences) as described previously [8, 9].
cAMP levels in stably transfected CHO-K1 cells were determined as described previously [8, 9, 21], except 100 µM isobutylmethylxanthine (IBMX) was used. cAMP levels are represented as a percentage of basal samples unless otherwise stated. Student’s T-test (two-tailed and unpaired) was used to test for significance. Unless otherwise stated, all data are shown as mean ± SEM. Each data point plotted was the mean of data obtained from at least three experiments. Within each experiment three separate replicate wells were analysed for each condition and the cAMP assays on each of the wells was carried out in duplicate.
Forskolin was used both to increase basal cAMP levels to make it easier to detect increases and decreases in cAMP levels in the same experiments and also to potentiate responses to agonists to more accurately determine their threshold effects [see 22]. A non-saturating 10 µM concentration of forskolin was used.
Figure 1 Effect of biogenic amines and synthetic agonists on forskolin-stimulated cAMP levels in AmphiAmR11-expressing CHO-K1 cells. Cells were pre-incubated with 100 µM IBMX for 20 min, followed by incubation with 10 µM forskolin and 100 µM IBMX in the presence of increasing concentrations of various biogenic amines (A) or synthetic agonists (B) for a further 20 min. Data are expressed as the mean ± SEM. n ≥ 3.

human 5HT1A receptor = conditions: cited from earlier work
AmphiAmR11 [6] = molecular target: T1, AmphiAmR11; assay: Calcium mobilisation in AmphiAmR11-expressing CHO-K1 cells (Fura-2, percentage of responding cells per field of view); type: cell-based; conditions: 3 minutes exposure; read-out: EC50 for calcium mobilisation (percentage of responding cells per field of view)
Description: Stably transfected CHO-K1 cells were assayed for changes in intracellular calcium levels using an Olympus Cell^R imaging system and the fluorescent indicator Fura-2, as described previously, with modifications described by Bayliss et al.. At 1 minute into the experiment, a buffer control was added and at 2 minutes into the experiment, the specified concentration of agonist was added. A single coverslip of cells was used per concentration of agonist and the percentage of cells that responded per field of view was calculated. The results from each coverslip gave an n of 1 and each agonist concentration was repeated at least three times on different days.
Figure 6 Effect of biogenic amines and calcium pathway inhibitors on calcium mobilisation in AmphiAmR11-expressing CHO-K1 cells. AmphiAmR11-expressing cells were exposed to increasing concentrations (A) or 10 nM (B) of biogenic amines for 3 minutes and the number of responding cells per field of view were calculated. Data are expressed as the mean ± SEM. n ≥ 3. FOV, field of view; DA, dopamine; TA, tyramine; NA, noradrenaline; Adr, adrenaline; OA, octopamine.

AmphiAmR11 [7] = molecular target: T1, AmphiAmR11; assay: cell-based; type: cell-based
[8] = 10 µM forskolin, 100 µM IBMX, 20 min, full concentration response curves, read-out: EC50 for decrease in forskolin-stimulated cAMP levels

T1 sequence (A0PF35 entry or part of it): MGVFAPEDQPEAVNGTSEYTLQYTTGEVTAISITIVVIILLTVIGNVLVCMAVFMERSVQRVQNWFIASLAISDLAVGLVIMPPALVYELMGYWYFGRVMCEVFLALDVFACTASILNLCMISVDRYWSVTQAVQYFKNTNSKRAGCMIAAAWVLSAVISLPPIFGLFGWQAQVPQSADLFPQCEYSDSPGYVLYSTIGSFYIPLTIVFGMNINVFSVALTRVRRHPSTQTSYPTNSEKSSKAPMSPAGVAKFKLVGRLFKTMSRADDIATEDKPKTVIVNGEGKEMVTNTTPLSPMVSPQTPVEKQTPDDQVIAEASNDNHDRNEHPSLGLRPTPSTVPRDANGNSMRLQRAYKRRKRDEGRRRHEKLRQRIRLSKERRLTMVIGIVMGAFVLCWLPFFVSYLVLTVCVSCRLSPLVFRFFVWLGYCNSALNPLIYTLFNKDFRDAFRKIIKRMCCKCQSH

O=c1cc(N2CCOCC2)oc2c(-c3ccccc3)cccc12 [LY294002]
Effect on D2-mediated ERK1/2 activation in CHO cells (D2-dopamine receptors): partially reduce | Effect of inhibitor on dopamine-induced ERK1/2 phosphorylation [1]: significantly reduced | Effect on D3-mediated ERK1/2 activation in CHO cells (D3-dopamine receptors): partially reduce

CN1CCc2cc(Cl)c(O)cc2[C@@H](c2ccccc2)C1 [SCH23390, R(+)-7-chloro-8-hydroxy-3-methyl-1-phenyl-2,3,4,5-tetrahydro-^1H-3-benzazepine hydrochloride]
Effect on dopamine-mediated signalling via DD2R (DD2R): not to affect | Block of tyramine-induced inhibition of forskolin-stimulated cAMP levels (AmphiAmR11 [2]; 1 μM antagonist): no significant blocking effect | Effect on dopamine-mediated signalling via CeDOP2L (CeDOP2L): not to affect | Effect on dopamine-mediated signalling via CeDOP2S (CeDOP2S): not to affect

CC(C)(C)[C@]1(O)CCN2C[C@H]3c4ccccc4CCc4cccc(c43)[C@@H]2C1 [butaclamol, (+)-butaclamol hydrochloride]
Antagonist effect at invertebrate D2-like receptor DD2R at high concentration (DD2R): only a partial effect | Block of tyramine-induced inhibition of forskolin-stimulated cAMP levels (AmphiAmR11 [2]; 1 μM antagonist): no significant blocking effect | Block of dopamine-induced ERK1/2 activation (AmphiAmR11 [3]): no significant effect | Antagonist effect at invertebrate D2-like receptor CeDOP2L at high concentration (CeDOP2L): only a partial effect | Antagonist effect at invertebrate D2-like receptor CeDOP2S at high concentration (CeDOP2S): only a partial effect | Effect of antagonist on ERK1/2 phosphorylation in the absence of dopamine (AmphiAmR11 [4]): did not exhibit any agonistic properties

CN(C)CCCN1c2ccccc2Sc2ccc(Cl)cc21 [chlorpromazine]
Effect on dopamine-mediated signalling via DD2R (DD2R): not to affect | Effect on dopamine-mediated signalling via CeDOP2L (CeDOP2L): not to affect | Effect on dopamine-mediated signalling via CeDOP2S (CeDOP2S): not to affect

Cl.Cl.OCCN1CCN(CC/C=C2/c3ccccc3Sc3ccc(C(F)(F)F)cc32)CC1 [flupenthixol, cis-(Z)-flupenthixol dihydrochloride]
Antagonist effect at invertebrate D2-like receptor DD2R at high concentration (DD2R): only a partial effect | Block of tyramine-induced inhibition of forskolin-stimulated cAMP levels (AmphiAmR11 [2]; 1 μM antagonist): no significant blocking effect | Block of dopamine-induced ERK1/2 activation (AmphiAmR11 [3]): no significant effect | Antagonist effect at invertebrate D2-like receptor CeDOP2L at high concentration (CeDOP2L): only a partial effect | Antagonist effect at invertebrate D2-like receptor CeDOP2S at high concentration (CeDOP2S): only a partial effect | Effect of antagonist on ERK1/2 phosphorylation in the absence of dopamine (AmphiAmR11 [4]): did not exhibit any agonistic properties

c1ccc2c(CC3=NCCN3)cccc2c1 [naphazoline, naphazoline hydrochloride]
Agonist activity at AmphiAmR4 (AmphiAmR4): most potent agonist | Effect on forskolin-stimulated cAMP levels at 1 µM (AmphiAmR11 [5]; 1 µM agonist, 10 µM forskolin, 100 µM IBMX, 20 min): most effective agonists | EC50 (AmphiAmR11 [5]; [8]): 0.287 nM | Effect on ERK1/2 phosphorylation at 100 nM (AmphiAmR11 [4]; 100 nM synthetic agonist, 5 min): increased the ERK1/2 phosphorylation level above that of the basal condition | Effect on ERK1/2 phosphorylation at 1 µM (AmphiAmR11 [4]; 1 µM synthetic agonist, 5 min, dopamine as reference): most effective of the synthetic agonists

COC(=O)[C@H]1[C@H]2C[C@H]3c4[nH]c5ccccc5c4CCN3C[C@H]2CC[C@@H]1O [rauwolscine, rauwolscine hydrochloride]
Block of tyramine-induced inhibition of forskolin-stimulated cAMP levels (AmphiAmR11 [2]; 1 μM antagonist): no significant blocking effect | Block of dopamine-induced ERK1/2 activation (AmphiAmR11 [3]): no significant effect | Agonist activity at human 5HT1A receptor (human 5HT1A receptor): partial agonist activity | EC50 (AmphiAmR11 [5]): 121 nM | Decrease of forskolin-stimulated cAMP levels by antagonist in the absence of agonist (AmphiAmR11 [5]; 10 µM forskolin): could inhibit forskolin-stimulated cAMP levels | Agonist type at AmphiAmR11 (full or partial) (AmphiAmR11 [5]): full agonists | Inhibition of forskolin-stimulated cAMP levels (maximal) (AmphiAmR11 [5]): greater than 90% | Effect of antagonist on ERK1/2 phosphorylation in the absence of dopamine (AmphiAmR11 [4]): increase in ERK1/2 phosphorylation

O=C(CCCN1CCC2(CC1)C(=O)NCN2c1ccccc1)c1ccc(F)cc1 [spiperone, spiperone hydrochloride]
Effect on dopamine-mediated signalling via DD2R (DD2R): little or no effect | Block of dopamine-induced ERK1/2 activation (AmphiAmR11 [3]): no significant effect | Effect on dopamine-mediated signalling via CeDOP2L (CeDOP2L): little or no effect | Effect on dopamine-mediated signalling via CeDOP2S (CeDOP2S): little or no effect | Effect of antagonist on ERK1/2 phosphorylation in the absence of dopamine (AmphiAmR11 [4]): did not exhibit any agonistic properties

NCCc1ccc(O)cc1 [tyramine, tyramine hydrochloride]
EC50 (AmphiAmR11 [6]): 767 nM | Concentrations coupling AmphiAmR11 to an increase in cAMP levels (AmphiAmR11 [7]; after pertussis toxin): above 1 µM | Effect on forskolin-stimulated cAMP levels following pertussis toxin treatment (AmphiAmR11 [7]; amines at 100 µM, pertussis toxin 200 ng/mL, 16 hours): increase in forskolin-stimulated cAMP levels | Concentration dependence of increase in forskolin-stimulated cAMP levels following pertussis toxin (AmphiAmR11 [7]; pertussis toxin 200 ng/mL, 16 h, up to 100 µM): concentration-dependent effects | EC50 (AmphiAmR11 [5]; [8]): 7.47 nM | EC50 (AmphiAmR11 [4]): 18.2 nM | Duration of ERK1/2 phosphorylation response after the peak (AmphiAmR11 [4]; 1 µM tyramine (level by 30 minutes) or 30 nM dopamine): approximately half that of its peak at 5 minutes | Time of peak ERK1/2 phosphorylation (AmphiAmR11 [4]; 1 µM tyramine or 30 nM dopamine): approximately 5 minutes

COC[C@H]1OC(=O)c2coc3c2[C@@]1(C)C1=C(C3=O)[C@@H]2CCC(=O)[C@@]2(C)C[C@H]1OC(C)=O [wortmannin]
Effect on D2-mediated ERK1/2 activation in CHO cells (D2-dopamine receptors): partially reduce | Effect on D3-mediated ERK1/2 activation in CHO cells (D3-dopamine receptors): partially reduce

COC(=O)[C@@H]1[C@H]2C[C@H]3c4[nH]c5ccccc5c4CCN3C[C@@H]2CC[C@@H]1O [yohimbine, yohimbine hydrochloride]
Apparent enhancement of tyramine-induced inhibition of forskolin-stimulated cAMP levels (AmphiAmR11 [2]; 1 μM antagonist): appeared to enhance | Block of tyramine-induced inhibition of forskolin-stimulated cAMP levels (AmphiAmR11 [2]; 1 μM antagonist): no significant blocking effect | Blocking effect on tyramine-induced response at reduced antagonist concentrations (AmphiAmR11 [2]; varying concentrations of antagonist): no blocking effect | Block of dopamine-induced ERK1/2 activation (AmphiAmR11 [3]): no significant effect | Agonist activity at human 5HT1A receptor (human 5HT1A receptor): partial agonist activity | EC50 (AmphiAmR11 [5]): 17.1 nM | Decrease of forskolin-stimulated cAMP levels by antagonist in the absence of agonist (AmphiAmR11 [5]; 10 µM forskolin): could inhibit forskolin-stimulated cAMP levels | Agonist type at AmphiAmR11 (full or partial) (AmphiAmR11 [5]): full agonists | Inhibition of forskolin-stimulated cAMP levels (maximal) (AmphiAmR11 [5]): greater than 90% | Effect of antagonist on ERK1/2 phosphorylation in the absence of dopamine (AmphiAmR11 [4]): increase in ERK1/2 phosphorylation
